Reference: paper PMC9500845, “New Anticancer Theobromine Derivative Targeting EGFR^WT and EGFR^T790M: Design, Semi-Synthesis, In Silico, and In Vitro Anticancer Studies” (Molecules, 2022)

Biological target: EGFR (Homo sapiens, UniProt P00533)
Assay: in vitro EGFR enzyme inhibition, Human EGFR ELISA kit
Type: biochemical

EGFR, sequence (P00533 25-1210): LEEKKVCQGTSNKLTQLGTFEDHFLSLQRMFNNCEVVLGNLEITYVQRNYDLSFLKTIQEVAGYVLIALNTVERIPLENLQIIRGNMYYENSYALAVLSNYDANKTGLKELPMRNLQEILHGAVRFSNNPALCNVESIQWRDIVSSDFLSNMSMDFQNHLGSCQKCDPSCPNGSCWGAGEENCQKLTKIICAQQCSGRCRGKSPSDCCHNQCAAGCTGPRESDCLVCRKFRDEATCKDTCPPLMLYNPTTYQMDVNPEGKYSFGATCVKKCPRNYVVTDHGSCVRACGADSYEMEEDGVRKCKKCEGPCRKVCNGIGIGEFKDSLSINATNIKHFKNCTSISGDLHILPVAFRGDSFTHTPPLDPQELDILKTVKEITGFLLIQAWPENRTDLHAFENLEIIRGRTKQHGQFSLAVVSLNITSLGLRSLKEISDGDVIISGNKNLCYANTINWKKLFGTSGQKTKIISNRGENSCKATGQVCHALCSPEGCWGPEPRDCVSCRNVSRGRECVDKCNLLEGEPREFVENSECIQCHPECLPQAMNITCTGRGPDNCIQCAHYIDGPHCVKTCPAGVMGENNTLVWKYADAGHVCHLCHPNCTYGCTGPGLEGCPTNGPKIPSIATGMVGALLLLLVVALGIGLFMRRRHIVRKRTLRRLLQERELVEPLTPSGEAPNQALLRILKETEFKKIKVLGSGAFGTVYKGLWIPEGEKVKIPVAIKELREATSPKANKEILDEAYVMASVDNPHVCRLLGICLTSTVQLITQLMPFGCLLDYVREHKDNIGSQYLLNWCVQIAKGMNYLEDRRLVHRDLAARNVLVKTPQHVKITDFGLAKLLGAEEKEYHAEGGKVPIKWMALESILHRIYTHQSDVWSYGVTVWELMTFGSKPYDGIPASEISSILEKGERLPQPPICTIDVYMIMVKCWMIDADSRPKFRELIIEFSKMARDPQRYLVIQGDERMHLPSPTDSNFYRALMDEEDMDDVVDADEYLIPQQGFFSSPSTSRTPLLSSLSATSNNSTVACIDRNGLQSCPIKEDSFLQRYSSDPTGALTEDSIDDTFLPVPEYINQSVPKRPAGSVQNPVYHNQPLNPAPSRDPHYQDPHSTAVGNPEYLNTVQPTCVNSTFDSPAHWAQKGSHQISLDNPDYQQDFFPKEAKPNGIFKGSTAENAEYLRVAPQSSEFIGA

Cn1cnc2c1c(=O)n(CC(=O)NCc1ccccc1)c(=O)n2C [XI, N-Benzyl-2-(3,7-dimethyl-2,6-dioxo-2,3,6,7-tetrahydro-1H-purin-1-yl)acetamide]
IC50: 17.2 nM
